Reference: patent US20060069132A1, “Azolecarboxamide herbicides” (priority 2004, published 2006)

Columns and labels:
barnyardgrass [1] = experiment: Test A pre-/postemergence herbicide test; assay type: in vivo, Echinochloa crus-galli
Summary of the method: (§1)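 Sandy loam soil given preemergence directed spray; plants at 2 to 10 cm, one- to two-leaf stage, sprayed to runoff postemergence, compounds in non-phytotoxic solvent with surfactant. Injury rated visually versus untreated controls after about ten greenhouse days, 0 (no effect) to 100 (complete control); dash means not tested.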

large crabgrass [2] = experiment: Test A pre-/postemergence herbicide test; assay type: in vivo, Digitaria sanguinalis
Summary of the method: as §1

giant foxtail [3] = experiment: Test A pre-/postemergence herbicide test; assay type: in vivo, Setaria faberi
Summary of the method: as §1

morningglory [4] = experiment: Test A pre-/postemergence herbicide test; assay type: in vivo, Ipomoea spp.
Summary of the method: as §1

redroot pigweed = experiment: Test A pre-/postemergence herbicide test; assay type: in vivo, Amaranthus retroflexus
Summary of the method: as §1

velvetleaf [5] = experiment: Test A pre-/postemergence herbicide test; assay type: in vivo, Abutilon theophrasti
Summary of the method: as §1

barnyardgrass [6] = experiment: Test B pre-/postemergence herbicide test; assay type: in vivo, Echinochloa crus-galli; conditions: for Barnyardgrass plant response rating: postemergence, visual rating, scale 0 (no effect) to 100 (complete control)
Summary of the method: (§2)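 Test chemicals in a non-phytotoxic solvent mixture with surfactant were applied preemergence to seeded species and postemergence to plants 2-18 cm tall (1- to 4-leaf stage); rice and barnyardgrass were also tested in a flooded paddy at the 2-leaf stage. Visual rating versus controls after 13-15 days in greenhouse, scale 0 (no effect) to 100 (complete control).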

Surinam grass = experiment: Test B pre-/postemergence herbicide test; assay type: in vivo, Urochloa decumbens; conditions: for Surinam Grass plant response rating: postemergence, visual rating, scale 0 (no effect) to 100 (complete control)
Summary of the method: (§3)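 Greenhouse pot assay with simultaneous preemergence (treated seed) and postemergence (2–18 cm seedlings) applications of surfactant-containing, non-phytotoxic solvent formulations. Response scored visually 13–15 days later on a 0–100 scale, 100 meaning complete control.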

cocklebur = experiment: Test B pre-/postemergence herbicide test; assay type: in vivo, Xanthium strumarium; conditions: for Cocklebur plant response rating: postemergence, visual rating, scale 0 (no effect) to 100 (complete control)
Summary of the method: as §2

corn = experiment: Test B pre-/postemergence herbicide test; assay type: in vivo, Zea mays; conditions: for Corn plant response rating: postemergence, visual rating, scale 0 (no effect) to 100 (complete control)
Summary of the method: as §3

large crabgrass [7] = experiment: Test B pre-/postemergence herbicide test; assay type: in vivo, Digitaria sanguinalis; conditions: for Crabgrass, Large plant response rating: postemergence, visual rating, scale 0 (no effect) to 100 (complete control)
Summary of the method: as §3

giant foxtail [8] = experiment: Test B pre-/postemergence herbicide test; assay type: in vivo, Setaria faberi; conditions: for Foxtail, Giant plant response rating: postemergence, visual rating, scale 0 (no effect) to 100 (complete control)
Summary of the method: as §3

lambsquarters = experiment: Test B pre-/postemergence herbicide test; assay type: in vivo, Chenopodium album; conditions: for Lambsquarters plant response rating: postemergence, visual rating, scale 0 (no effect) to 100 (complete control)
Summary of the method: as §3

morningglory [9] = experiment: Test B pre-/postemergence herbicide test; assay type: in vivo, Ipomoea coccinea; conditions: for Morningglory plant response rating: postemergence, visual rating, scale 0 (no effect) to 100 (complete control)
Summary of the method: as §2

pigweed = experiment: Test B pre-/postemergence herbicide test; assay type: in vivo, Amaranthus retroflexus; conditions: for Pigweed plant response rating: postemergence, visual rating, scale 0 (no effect) to 100 (complete control)
Summary of the method: as §3

rice [10] = experiment: Test B pre-/postemergence herbicide test; assay type: in vivo, Oryza sativa; conditions: preemergence
Summary of the method: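 Species tested were Echinochloa crus-galli, Ipomoea coccinea, Xanthium strumarium and Oryza sativa, treated both before emergence and at the 1- to 4-leaf stage; rice and barnyardgrass were also tested under flooding at 2 leaves. Greenhouse incubation lasted 13–15 days before visual 0–100 scoring.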

velvetleaf [11] = experiment: Test B pre-/postemergence herbicide test; assay type: in vivo, Abutilon theophrasti; conditions: for Velvetleaf plant response rating: postemergence, visual rating, scale 0 (no effect) to 100 (complete control)
Summary of the method: as §3

blackgrass = experiment: Test B postemergence herbicide test; assay type: in vivo, Alopecurus myosuroides; conditions: postemergence, visual rating, scale 0 (no effect) to 100 (complete control)
Summary of the method: (§4)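 Paddy species grown to the 2-leaf stage under flooding; blackgrass sprayed postemergence at 2–18 cm (1- to 4-leaf stage). Plants kept in a greenhouse for 13 to 15 days, then visually rated against controls on 0 (no effect) to 100 (complete control).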

wheat = experiment: Test B postemergence herbicide test; assay type: in vivo, Triticum aestivum; parameters: key to Wheat plant response rating: 0 = no effect, 100 = complete control; conditions: postemergence, visual rating, scale 0 (no effect) to 100 (complete control)
Summary of the method: (§5)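 Each value is a visual 0–100 response rating taken against controls 13 to 15 days after treatment in the greenhouse. Plants received formulated chemical postemergence at the 1- to 4-leaf stage or, in flooded paddy, at the 2-leaf stage.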

wild oat = experiment: Test B postemergence herbicide test; assay type: in vivo, Avena fatua; conditions: postemergence, visual rating, scale 0 (no effect) to 100 (complete control)
Summary of the method: as §5

rice [12] = experiment: Test B flooded paddy test; assay type: in vivo, Oryza sativa; conditions: 1000 g ai/ha, visual rating, scale 0 to 100 (0 no effect, 100 complete control), 13 to 15 days
Summary of the method: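 Greenhouse test; postemergence application to plants at 1–4 leaves (2–18 cm); paddy species at 2 leaves; evaluated visually vs controls at 13–15 days; scale 0–100 (100 = complete control).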

[13] = tested on: small flower umbrella sedge; experiment: Test B flooded paddy test; assay type: in vivo, Cyperus difformis; conditions: 1000 g ai/ha, visual rating, scale 0 to 100 (0 no effect, 100 complete control), 13 to 15 days
Summary of the method: as §4

ducksalad = experiment: Test B flooded paddy test; assay type: in vivo, Heteranthera limosa; conditions: 1000 g ai/ha, visual rating, scale 0 to 100 (0 no effect, 100 complete control), 13 to 15 days
Summary of the method: as §4

barnyardgrass [14] = experiment: Test B flooded paddy test; assay type: in vivo, Echinochloa crus-galli; conditions: 1000 g ai/ha, visual rating, scale 0 to 100 (0 no effect, 100 complete control), 13 to 15 days
Summary of the method: as §4

[15] = Postemergence, 500 g ai/ha, 0 to 100 scale, 0 no effect, 100 complete control
[16] = Postemergence, 2000 g ai/ha, 0 to 100 scale, 0 no effect, 100 complete control
[17] = Preemergence, 2000 g ai/ha, visual rating, 0 to 100 scale (0 no effect, 100 complete control)
[18] = preemergence, 500 g ai/ha, visual injury, 0 to 100 scale (0 no effect, 100 complete control)
[19] = 125 g ai/ha, 0 = no effect, 100 = complete control, preemergence
[20] = 500 g ai/ha, visual rating 0-100, 0 no effect, 100 complete control, preemergence

## Cc1nc(C(C)(C)C)sc1C(=O)Nc1cccc(C(=O)NCCF)c1 [Compound 200]
Barnyardgrass [1]; [15]
  Barnyardgrass plant response rating: 10
Barnyardgrass [1]; [16]
  Plant response rating, Barnyardgrass: 35
Barnyardgrass [1]; [17]
  Barnyardgrass plant response rating: 45
Barnyardgrass [1]; [18]
  Barnyardgrass plant response rating: 35
Large crabgrass [2]; [15]
  Crabgrass, Large plant response rating: 10
Large crabgrass [2]; [16]
  Plant response rating, Crabgrass, Large: 25
Large crabgrass [2]; [17]
  Crabgrass, Large plant response rating: 75
Large crabgrass [2]; [18]
  Crabgrass, Large plant response rating: 70
Giant foxtail [3]; [15]
  Foxtail, Giant plant response rating: 0
Giant foxtail [3]; [16]
  Plant response rating, Foxtail, Giant: 20
Giant foxtail [3]; [17]
  Foxtail, Giant plant response rating: 60
Giant foxtail [3]; [18]
  Foxtail, Giant plant response rating: 35
Morningglory [4]; [15]
  Morningglory plant response rating: 35
Morningglory [4]; [16]
  Plant response rating, Morningglory: 45
Morningglory [4]; [17]
  Morningglory plant response rating: 60
Morningglory [4]; [18]
  Morningglory plant response rating: 15
Redroot pigweed; [15]
  Pigweed plant response rating: 50
Redroot pigweed; [16]
  Plant response rating, Pigweed: 60
Redroot pigweed; [17]
  Pigweed plant response rating: 95
Redroot pigweed; [18]
  Pigweed plant response rating: 80
Velvetleaf [5]; [15]
  Velvetleaf plant response rating: 10
Velvetleaf [5]; [16]
  Plant response rating, Velvetleaf: 10
Velvetleaf [5]; [17]
  Velvetleaf plant response rating: 35
Velvetleaf [5]; [18]
  Velvetleaf plant response rating: 20
Barnyardgrass [6]; [19]
  Barnyardgrass plant response rating (0 to 100 scale): 0
Barnyardgrass [6]; [20]
  Plant response rating, Barnyardgrass: 20
Barnyardgrass [6]; 125 g ai/ha
  Barnyardgrass plant response rating: 0
Barnyardgrass [6]; 500 g ai/ha
  Barnyardgrass plant response rating: 10
Surinam grass; [19]
  Surinam Grass plant response rating (0 to 100 scale): 0
Surinam grass; [20]
  Plant response rating, Surinam Grass: 10
Surinam grass; 125 g ai/ha
  Surinam Grass plant response rating: 10
Surinam grass; 500 g ai/ha
  Surinam Grass plant response rating: 20
cocklebur; [19]
  Cocklebur plant response rating (0 to 100 scale): 0
cocklebur; [20]
  Plant response rating, Cocklebur: 0
cocklebur; 125 g ai/ha
  Cocklebur plant response rating: 10
cocklebur; 500 g ai/ha
  Cocklebur plant response rating: 20
corn; [19]
  Corn plant response rating (0 to 100 scale): 0
corn; [20]
  Plant response rating, Corn: 0
corn; 125 g ai/ha
  Corn plant response rating: 10
corn; 500 g ai/ha
  Corn plant response rating: 30
Large crabgrass [7]; [19]
  Crabgrass, Large plant response rating (0 to 100 scale): 50
Large crabgrass [7]; [20]
  Plant response rating, Crabgrass, Large: 90
Large crabgrass [7]; 125 g ai/ha
  Crabgrass, Large plant response rating: 0
Large crabgrass [7]; 500 g ai/ha
  Crabgrass, Large plant response rating: 10
Giant foxtail [8]; [19]
  Foxtail, Giant plant response rating (0 to 100 scale): 0
Giant foxtail [8]; [20]
  Plant response rating, Foxtail, Giant: 10
Giant foxtail [8]; 125 g ai/ha
  Foxtail, Giant plant response rating: 10
Giant foxtail [8]; 500 g ai/ha
  Foxtail, Giant plant response rating: 10
lambsquarters; [19]
  Lambsquarters plant response rating (0 to 100 scale): 20
lambsquarters; [20]
  Plant response rating, Lambsquarters: 80
lambsquarters; 125 g ai/ha
  Lambsquarters plant response rating: 60
lambsquarters; 500 g ai/ha
  Lambsquarters plant response rating: 60
Morningglory [9]; [19]
  Morningglory plant response rating (0 to 100 scale): 0
Morningglory [9]; [20]
  Plant response rating, Morningglory: 10
Morningglory [9]; 125 g ai/ha
  Morningglory plant response rating: 0
Morningglory [9]; 500 g ai/ha
  Morningglory plant response rating: 40
pigweed; [19]
  Pigweed plant response rating (0 to 100 scale): 10
pigweed; [20]
  Plant response rating, Pigweed: 90
pigweed; 125 g ai/ha
  Pigweed plant response rating: 10
pigweed; 500 g ai/ha
  Pigweed plant response rating: 40
Rice [10]; 125 g ai/ha, 0 = no effect, 100 = complete control
  Rice plant response rating (0 to 100 scale): 0
Rice [10]; 500 g ai/ha, visual rating 0-100, 0 no effect, 100 complete control
  Plant response rating, Rice: 10
Velvetleaf [11]; [19]
  Velvetleaf plant response rating (0 to 100 scale): 0
Velvetleaf [11]; [20]
  Plant response rating, Velvetleaf: 20
Velvetleaf [11]; 125 g ai/ha
  Velvetleaf plant response rating: 10
Velvetleaf [11]; 500 g ai/ha
  Velvetleaf plant response rating: 30
blackgrass; 125 g ai/ha
  Blackgrass plant response rating: 0
blackgrass; 500 g ai/ha
  Blackgrass plant response rating: 10
wheat; 125 g ai/ha
  Wheat plant response rating: 0
wheat; 500 g ai/ha
  Wheat plant response rating: 0
Wild oat; 125 g ai/ha
  Oat, Wild plant response rating: 0
Wild oat; 500 g ai/ha
  Oat, Wild plant response rating: 10
Rice [12]
  Rice plant response rating: 0
[13]
  Sedge, Umbrella plant response rating: 50
ducksalad
  Ducksalad plant response rating: 0
Barnyardgrass [14]
  Barnyardgrass plant response rating: 0
